Experiments:
[1] = target: GDP-bound NRAS wild-type protein (Homo sapiens, UniProt P01111); assay: Binding to NRAS by surface plasmon resonance (SPR), KD and KD ratio to KRAS; settings: ratio of KD value for GDP-bound NRAS wild-type protein to KD value for KRAS (SPR)
How it was run: (§1)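 GDP-bound biotin-Avi RAS captured at ~100–300 RU, 30°C, pH 7.4 HBS containing 10 µM GDP, 10 mM MgCl2, 1 mM DTT, 0.01% Tween 20 and 4% DMSO. KD by 1:1 fitting.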

HRAS wild-type protein = HRAS wild-type protein (Homo sapiens, UniProt P01112); assay: Binding to HRAS by surface plasmon resonance (SPR), KD and KD ratio to KRAS; settings: ratio of KD value for HRAS wild-type protein to KD value for KRAS (SPR)
HRAS wild-type protein, sequence (P01112 whole entry): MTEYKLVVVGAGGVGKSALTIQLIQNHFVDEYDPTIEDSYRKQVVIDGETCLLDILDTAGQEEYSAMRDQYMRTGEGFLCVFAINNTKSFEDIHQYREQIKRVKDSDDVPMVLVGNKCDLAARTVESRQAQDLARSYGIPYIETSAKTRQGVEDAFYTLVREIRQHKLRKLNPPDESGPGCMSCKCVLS
How it was run: as §1

[2] = test system: human lung cancer strain NCI-H441; assay type: cell-based
How it was run: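 Readout: […] after the ATP-based reagent. Compound: serial dilutions in dimethyl sulfoxide.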

GDP-bound NRAS wild-type protein, sequence (P01111 whole entry): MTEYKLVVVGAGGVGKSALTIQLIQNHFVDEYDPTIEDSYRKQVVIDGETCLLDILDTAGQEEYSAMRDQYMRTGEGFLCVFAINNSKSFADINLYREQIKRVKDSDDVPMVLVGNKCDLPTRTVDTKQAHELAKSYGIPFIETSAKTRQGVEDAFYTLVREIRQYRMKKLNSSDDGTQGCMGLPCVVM

Row | Compound | NRAS /KRAS [1] | HRAS /KRAS (HRAS wild-type protein) | IC50 [2]
1 | CCO[C@@H]1C[C@H]2C(=O)NC3(CC(F)(F)C3)C(=O)N(C)[C@@H](C3CCCC3)C(=O)N(C)[C@H](CC)CC(=O)N(C)[C@@H](CC)C(=O)N[C@@H]([C@@H](C)CC)C(=O)N(C)CC(=O)N(C)[C@H]3C/C=C\CCN(C3=O)[C@@H](Cc3ccc(C(F)(F)F)cc3)C(=O)N(C)CC(=O)N[C@@H](CCc3cc(F)c(C(F)(F)F)c(F)c3)C(=O)N2C1 [PP1627] | A (a compound having 10 or more and less than 20 is denoted as A) | A (a compound having 10 or more and less than 20 is denoted as A) | 22.9 nM
2 | CCO[C@@H]1C[C@H]2C(=O)NC3(CC(C)(C)C3)C(=O)N(C)[C@@H](C(CC)CC)C(=O)N(C)[C@H](CC)CC(=O)N(C)[C@@H](CC3CC3)C(=O)N[C@@H]([C@@H](C)CC)C(=O)N(C)CC(=O)N(C)[C@H]3C/C=C\CCN(C3=O)[C@@H](Cc3ccc(C(F)(F)F)cc3)C(=O)N(C)CC(=O)N[C@@H](CCc3cc(F)c(C(F)(F)F)c(F)c3)C(=O)N2C1 [PP1628] | A (a compound having 10 or more and less than 20 is denoted as A) | A (a compound having 10 or more and less than 20 is denoted as A) | 150 nM
3 | CCO[C@@H]1C[C@H]2C(=O)NC3(CC(C)(C)C3)C(=O)N(C)[C@@H](C3CCCC3)C(=O)N(C)[C@H](CC)CC(=O)N(C)[C@@H](CC3CC3)C(=O)N[C@@H]([C@@H](C)CC)C(=O)N(C)CC(=O)N(C)[C@H]3C/C=C\CCN(C3=O)[C@@H](Cc3ccc(C(F)(F)F)cc3)C(=O)N(C)CC(=O)N[C@@H](CCc3cc(F)c(C(F)(F)F)c(F)c3)C(=O)N2C1 [PP1629] | B (a compound having 3 or more and less than 10 is denoted as B) | B (a compound having 3 or more and less than 10 is denoted as B) | 20.7 nM
4 | CCO[C@@H]1C[C@H]2C(=O)NC3(CCC3)C(=O)N(C)[C@@H](C(CC)CC)C(=O)N(C)[C@H](CC)CC(=O)N(C)[C@@H](CC3CC3)C(=O)N[C@@H]([C@@H](C)CC)C(=O)N(C)CC(=O)N(C)[C@H]3C/C=C\CCN(C3=O)[C@@H](Cc3ccc(C(F)(F)F)cc3)C(=O)N(C)CC(=O)N[C@@H](CCc3cc(F)c(C(F)(F)F)c(F)c3)C(=O)N2C1 [PP1630] | A (a compound having 10 or more and less than 20 is denoted as A) | A (a compound having 10 or more and less than 20 is denoted as A) | 144 nM
5 | CCO[C@@H]1C[C@H]2C(=O)NC3(CCC3)C(=O)N(C)[C@@H](C3CCCC3)C(=O)N(C)[C@H](CC)CC(=O)N(C)[C@@H](CC3CC3)C(=O)N[C@@H]([C@@H](C)CC)C(=O)N(C)CC(=O)N(C)[C@H]3C/C=C\CCN(C3=O)C(Cc3ccc(C(F)(F)F)cc3)C(=O)N(C)CC(=O)N[C@@H](CCc3cc(F)c(C(F)(F)F)c(F)c3)C(=O)N2C1 (stereo partly drawn) [PP1631] | A (a compound having 10 or more and less than 20 is denoted as A) | B (a compound having 3 or more and less than 10 is denoted as B) | 17.6 nM
6 | CCO[C@@H]1C[C@H]2C(=O)NC3(CC(F)(F)C3)C(=O)N(C)[C@@H](C(CC)CC)C(=O)N(C)[C@H](CC)CC(=O)N(C)[C@@H](CC3CC3)C(=O)N[C@@H]([C@@H](C)CC)C(=O)N(C)CC(=O)N(C)[C@H]3C/C=C\CCN(C3=O)[C@@H](Cc3ccc(C(F)(F)F)cc3)C(=O)N(C)CC(=O)N[C@@H](CCc3cc(F)c(C(F)(F)F)c(F)c3)C(=O)N2C1 [PP1632] | A (a compound having 10 or more and less than 20 is denoted as A) | A (a compound having 10 or more and less than 20 is denoted as A) | 116 nM
7 | CCO[C@@H]1C[C@H]2C(=O)NC3(CC(F)(F)C3)C(=O)N(C)[C@@H](C3CCCC3)C(=O)N(C)[C@H](CC)CC(=O)N(C)[C@@H](CC3CC3)C(=O)N[C@@H]([C@@H](C)CC)C(=O)N(C)CC(=O)N(C)[C@H]3C/C=C\CCN(C3=O)[C@@H](Cc3ccc(C(F)(F)F)cc3)C(=O)N(C)CC(=O)N[C@@H](CCc3cc(F)c(C(F)(F)F)c(F)c3)C(=O)N2C1 [PP1633] | A (a compound having 10 or more and less than 20 is denoted as A) | B (a compound having 3 or more and less than 10 is denoted as B) | 15.1 nM
8 | CCO[C@@H]1C[C@H]2C(=O)NC3(CC(C)(C)C3)C(=O)N(C)[C@@H](C(CC)CC)C(=O)N(C)[C@H](C3CCC3)CC(=O)N(C)[C@@H](CC3CC3)C(=O)N[C@@H]([C@@H](C)CC)C(=O)N(C)CC(=O)N(C)[C@H]3C/C=C\CCN(C3=O)[C@@H](Cc3ccc(C(F)(F)F)cc3)C(=O)N(C)CC(=O)N[C@@H](CCc3cc(F)c(C(F)(F)F)c(F)c3)C(=O)N2C1 [PP1634] | A (a compound having 10 or more and less than 20 is denoted as A) | A (a compound having 10 or more and less than 20 is denoted as A) | 144 nM
9 | CCO[C@@H]1C[C@H]2C(=O)NC3(CC(C)(C)C3)C(=O)N(C)[C@@H](C3CCCC3)C(=O)N(C)[C@H](C3CCC3)CC(=O)N(C)[C@@H](CC3CC3)C(=O)N[C@@H]([C@@H](C)CC)C(=O)N(C)CC(=O)N(C)[C@H]3C/C=C\CCN(C3=O)[C@@H](Cc3ccc(C(F)(F)F)cc3)C(=O)N(C)CC(=O)N[C@@H](CCc3cc(F)c(C(F)(F)F)c(F)c3)C(=O)N2C1 [PP1635] | B (a compound having 3 or more and less than 10 is denoted as B) | A (a compound having 10 or more and less than 20 is denoted as A) | 36.3 nM
10 | CCO[C@@H]1C[C@H]2C(=O)NC3(CCC3)C(=O)N(C)[C@@H](C3CCCC3)C(=O)N(C)[C@H](C3CCC3)CC(=O)N(C)[C@@H](CC3CC3)C(=O)N[C@@H]([C@@H](C)CC)C(=O)N(C)CC(=O)N(C)[C@H]3C/C=C\CCN(C3=O)[C@@H](Cc3ccc(C(F)(F)F)cc3)C(=O)N(C)CC(=O)N[C@@H](CCc3cc(F)c(C(F)(F)F)c(F)c3)C(=O)N2C1 [PP1637] | A (a compound having 10 or more and less than 20 is denoted as A) | A (a compound having 10 or more and less than 20 is denoted as A) | 32.5 nM
11 | CCO[C@@H]1C[C@H]2C(=O)NC3(CC(F)(F)C3)C(=O)N(C)[C@@H](C3CCCC3)C(=O)N(C)[C@H](C3CCC3)CC(=O)N(C)[C@@H](CC3CC3)C(=O)N[C@@H]([C@@H](C)CC)C(=O)N(C)CC(=O)N(C)[C@H]3C/C=C\CCN(C3=O)[C@@H](Cc3ccc(C(F)(F)F)cc3)C(=O)N(C)CC(=O)N[C@@H](CCc3cc(F)c(C(F)(F)F)c(F)c3)C(=O)N2C1 [PP1639] | A (a compound having 10 or more and less than 20 is denoted as A) | A (a compound having 10 or more and less than 20 is denoted as A) | 44.8 nM
12 | CCO[C@@H]1C[C@H]2C(=O)NC3(CC(C)(C)C3)C(=O)N(C)[C@@H](C3CCCC3)C(=O)N(C)[C@H](C(=O)N(C)C)CC(=O)N(C)[C@@H](C)C(=O)N[C@@H]([C@@H](C)CC)C(=O)N(C)CC(=O)N(C)[C@H]3C/C=C\CCN(C3=O)[C@@H](Cc3ccc(C(F)(F)F)cc3)C(=O)N(C)CC(=O)N[C@@H](CCc3cc(F)c(C(F)(F)F)c(F)c3)C(=O)N2C1 [PP1641] | A (a compound having 10 or more and less than 20 is denoted as A) | A (a compound having 10 or more and less than 20 is denoted as A) | 4.6 nM
13 | CCO[C@@H]1C[C@H]2C(=O)NC3(CC(C)(C)C3)C(=O)N(C)[C@@H](C3CCCC3)C(=O)N(C)[C@H](C(=O)N(C)CC)CC(=O)N(C)[C@@H](CC(F)F)C(=O)N[C@@H]([C@@H](C)CC)C(=O)N(C)CC(=O)N(C)[C@H]3C/C=C\CCN(C3=O)[C@@H](Cc3ccc(C(F)(F)F)cc3)C(=O)N(C)CC(=O)N[C@@H](CCc3cc(F)c(C(F)(F)F)c(F)c3)C(=O)N2C1 [PP1643] | A (a compound having 10 or more and less than 20 is denoted as A) | A (a compound having 10 or more and less than 20 is denoted as A) | 1.6 nM
14 | CCO[C@@H]1C[C@H]2C(=O)NC3(CC(C)(C)C3)C(=O)N(C)[C@@H](C3CCCC3)C(=O)N(C)[C@H](C(=O)N(C)C)CC(=O)N(C)[C@@H](CC(F)(F)F)C(=O)N[C@@H]([C@@H](C)CC)C(=O)N(C)CC(=O)N(C)[C@H]3C/C=C\CCN(C3=O)[C@@H](Cc3ccc(C(F)(F)F)cc3)C(=O)N(C)CC(=O)N[C@@H](CCc3cc(F)c(C(F)(F)F)c(F)c3)C(=O)N2C1 [PP1644] | A (a compound having 10 or more and less than 20 is denoted as A) | A (a compound having 10 or more and less than 20 is denoted as A) | 2.7 nM
15 | CCC[C@H]1C(=O)N[C@@H]([C@@H](C)CC)C(=O)N(C)CC(=O)N(C)[C@H]2C/C=C\CCN(C2=O)[C@@H](Cc2ccc(C(F)(F)F)cc2)C(=O)N(C)CC(=O)N[C@@H](CCc2cc(F)c(C(F)(F)F)c(F)c2)C(=O)N2C[C@H](OCC)C[C@H]2C(=O)NC2(CC(C)(C)C2)C(=O)N(C)[C@@H](C2CCCC2)C(=O)N(C)[C@H](C(=O)N(C)C)CC(=O)N1C [PP1645] | A (a compound having 10 or more and less than 20 is denoted as A) | A (a compound having 10 or more and less than 20 is denoted as A) | 1.8 nM
